17 compounds from ChEMBL document CHEMBL1122146, “Conformation-activity study of methadone and related compounds” (J Med Chem, 1982) can be followed below.

The target of this experiment is Mu-type opioid receptor (Cavia porcellus) (UniProt P97266). Briefly: Evaluated for analgesic activity as effective dose. Type of experiment: functional.
Sequence of Mu-type opioid receptor (Cavia porcellus) (P97266 whole entry): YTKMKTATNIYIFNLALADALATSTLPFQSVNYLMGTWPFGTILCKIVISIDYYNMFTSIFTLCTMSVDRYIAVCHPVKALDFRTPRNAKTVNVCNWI

What is called ED50 is the midpoint of the dose-response relation. Lower therefore signals an effect at a small dose. As to `CC[C@@H](O)C(c1ccccc1)(c1ccccc1)[C@@H](C)CN(C)C`, the ED50 came to 58.7 mg/kg.

Regarding `CC[C@H](O)C(c1ccccc1)(c1ccccc1)[C@H](C)CN(C)C`, the 50% effective dose (ED50) was 6.2 mg/kg.

On to `CCC(=O)C(C[C@@H](C)N(C)C)(c1ccccc1)c1ccccc1`, for which the 50% effective dose (ED50) was found to be 0.8 mg/kg.

Consider `CCC(O)C(C[C@@H](C)NC)(c1ccccc1)c1ccccc1` (some centres not stated), for which the 50% effect level (ED50) was put at a dose of 17.7 mg/kg.

Turning to `CC[C@@H](O)C(C[C@@H](C)N(C)C)(c1ccccc1)c1ccccc1`, the ED50 is 24.7 mg/kg.

Take `CC[C@H](O)C(C[C@H](C)N(C)C)(c1ccccc1)c1ccccc1`: it took a dose of 3.5 mg/kg to reach the 50% effect level (ED50).

Consider `CC[C@@H](O)C(C[C@H](C)N(C)C)(c1ccccc1)c1ccccc1`, for which it took a dose of 63.7 mg/kg to reach the 50% effect level (ED50).

As for `CC[C@H](O)C(C[C@@H](C)N(C)C)(c1ccccc1)c1ccccc1`, the 50% effective dose (ED50) stood at 7.6 mg/kg.

For `CCC(O)C(C[C@H](C)NC)(c1ccccc1)c1ccccc1` (some centres not stated), the 50% effect level (ED50) was put at a dose of 10.3 mg/kg.

For the compound `CCC(=O)C(CCN(C)C)(c1ccccc1)c1ccccc1`, it took a dose of 2.5 mg/kg to reach the 50% effect level (ED50).

On to `CC[C@H](O)C(c1ccccc1)(c1ccccc1)[C@@H](C)CN(C)C`, for which it took a dose of 60.7 mg/kg to reach the 50% effect level (ED50).

Turning to `CCC(=O)C(C[C@H](C)N(C)C)(c1ccccc1)c1ccccc1`, the ED50 stood at 25.7 mg/kg.

The compound `CCC(=O)C(c1ccccc1)(c1ccccc1)[C@@H](C)CN(C)C` yielded an ED50 of 49.8 mg/kg.

Compound `CCC(=O)C(CC(C)N(C)C)(c1ccccc1)c1ccccc1` (stereo in doubt; erythro) gave an ED50 of 0.4 mg/kg.

Compound `CC[C@@H](O)C(c1ccccc1)(c1ccccc1)[C@H](C)CN(C)C` returned an ED50 of 91.7 mg/kg.

As for `CCC(=O)C(CC(C)N(C)C)(c1ccccc1)c1ccccc1` (stereo in doubt; threo), the ED50 was greater than 50 mg/kg.

`CCC(=O)C(c1ccccc1)(c1ccccc1)[C@H](C)CN(C)C`: the 50% effect level (ED50) was put at a dose of 1.2 mg/kg.
